Results published in PubChem BioAssay AID1963840 (Molecular Pharmacology Branch, DTP, NCI, 2024).

System: 695427-040-R-J1-PDC complex spheroid viability
Experiment: Anticancer human tumor 695427-040-R-J1-PDC patient-derived colon adenocarcinoma cell line growth inhibition [POLQ]
Details: for IC50: curve of first compound; for viability, T/C: stronger effect = lower value
Description: Multicellular complex tumor spheroid response to Polymerase (POL) inhibitors (novobiocin, ART-558, RP6685) in combination with a variety of drugs and investigational agents in selected tumor cell lines
The POL inhibitors (novobiocin, ART-558, and RP6685) were evaluated both individually and in combination with standard of care and investigational anticancer small molecules within a complex spheroid model of solid tumors. . Complex spheroids include a stromal component modeled by human endothelial cells (HUVEC) and fibroblasts modeled by human mesenchymal stem cells (MSCs). The concentration ranges selected for each drug and investigational agent were based upon clinically achievable concentrations if the clinical Cmax of the agent was known.
Compounds. The drugs and investigational agents: novobiocin (NSC847541), ART-558 (NSC835418), RP-6685 (NSC848927), peposertib (NSC802822), ceralasertib (NSC780249), elimusertib (NSC800525), camonsertib (NSC841442), AZD-1390 (NSC803789), olaparib (NSC753686), talazoparib (NSC767125), rucaparib (NSC756644), sotorasib (NSC818433), MRTX-1133 (NSC836407), SN-38 (NSC673596), topotecan (NSC609699), epotoside (NSC141540), doxorubicin (NSC123127), gemcitabine (NSC613327), 5-fluorouracil (NSC19893), paclitaxel (NSC125973), vemurafenib (NSC761431), MSA-2 (NSC828583), SN-011 (NSC837082), adavosertib (NSC754352), prexasertib (NSC758257), carboplatin (NSC241240) and oxaliplatin (NSC266046), were obtained from the National Cancer Institute (NCI) Developmental Therapeutics Program Chemical Repository (21). The FDA-approved anticancer drug set is available from the Developmental Therapeutics Program at https://dtp.cancer.gov/organization/dscb/obtaining/. […] The stock solutions were prepared in dimethyl sulfoxide (DMSO, Sigma-Aldrich, St. Louis, MO, cat. D2650), except for the platinum compounds which were prepared in saline (Quality Biological, Gaithersburg, MD, cat. 114-055-101), at 800-fold the tested concentration and stored at -70 degrees C prior to their use. All drugs and investigational agents were tested over a range starting from a high concentration at or near the clinical Cmax and decreasing in half-log increments. If the clinical Cmax for an agent had not been determined, the highest concentration tested was 10 microM, except for SN-38, which was tested at a high concentration of 1 microM.
Cell Culture. All cells were maintained in an incubator at 37 degrees C and 5% CO2 with 95% humidity. The PDC lines were cultured according to standard operating procedures established by the NCI PDMR (https://pdmr.cancer.gov). Table 3 of the manuscript, lists the cell lines along with the number of the three cell types plated to form the mct-spheroids and media for tumor cell growth. After thawing, all PDC lines, except 997537-175-T-J1-PDC and 415267-285-R-J2-PDC, were cultured in Matrigel-coated flasks prepared with a working solution of 1X Ham's F-12 nutrient mix, without supplementation (Thermo Fisher Scientific, cat. 11765054), 100 U/mL penicillin-streptomycin (Thermo Fisher Scientific, cat. 15140122), and 2.5% Matrigel (Corning Inc., Corning, NY, cat. 354248) for the first three passages. The two PDC lines 997537-175-T-J1-PDC and 415267-285-R-J2-PDC were cultured on uncoated flasks. The 857933-349-R-J2-PDC line was cultured in 6C/Colon 1B media containing advanced DMEM/F-12 (Thermo Fisher Scientific, cat. 12634028), 10 mM HEPES (Thermo Fisher Scientific, cat. 15630080), 1X GlutaMAX supplement (Thermo Fisher Scientific, cat. 35050061), 0.1 mg/mL primocin (InvivoGen, San Diego, CA, cat. ant-pm-2), 10% defined fetal bovine serum, heat inactivated (HyClone Laboratories Inc., Logan, UT, cat. SH30070.03HI), 50% L-WRN conditioned media (ATCC, cat. CRL-3276), 1.25 mM N-Acetyl-L-cysteine (Sigma-Aldrich, cat. A9165), 10 mM nicotinamide (Sigma-Aldrich, cat. N0636), 1X B-27 supplement (Thermo Fisher Scientific, cat. 17504044), 1X N-2 supplement (Thermo Fisher Scientific, cat. […]

[1] = second compound 0.0316 µM, first compound 0.00316 µM
[2] = second compound 0.0316 µM, first compound 0.01 µM
[3] = second compound 0.0316 µM, first compound 0.0316 µM
[4] = second compound 0.0316 µM, first compound 0.1 µM
[5] = second compound 0.1 µM, first compound 0.00316 µM
[6] = second compound 0.1 µM, first compound 0.01 µM
[7] = second compound 0.1 µM, first compound 0.0316 µM
[8] = second compound 0.1 µM, first compound 0.1 µM
[9] = second compound 0.316 µM, first compound 0.00316 µM
[10] = second compound 0.316 µM, first compound 0.01 µM
[11] = second compound 0.316 µM, first compound 0.0316 µM
[12] = second compound 0.316 µM, first compound 0.1 µM
[13] = second compound 1 µM, first compound 0.00316 µM
[14] = second compound 1 µM, first compound 0.01 µM
[15] = second compound 1 µM, first compound 0.0316 µM
[16] = second compound 1 µM, first compound 0.1 µM
[17] = second compound 3.16 µM, first compound 0.00316 µM
[18] = second compound 3.16 µM, first compound 0.01 µM
[19] = second compound 3.16 µM, first compound 0.0316 µM
[20] = second compound 3.16 µM, first compound 0.1 µM
[21] = second compound 10 µM, first compound 0.00316 µM
[22] = second compound 10 µM, first compound 0.01 µM
[23] = second compound 10 µM, first compound 0.0316 µM
[24] = second compound 10 µM, first compound 0.1 µM
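Also: spheroids exposed to compounds for seven days.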
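For viability, T/C in this document: 100% = DMSO vehicle control viability.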

C=CCn1c(=O)c2cnc(Nc3ccc(N4CCN(C)CC4)cc3)nc2n1-c1cccc(C(C)(C)O)n1 + COC1C(OC(N)=O)C(O)C(Oc2ccc3c(O)c(NC(=O)c4ccc(O)c(CC=C(C)C)c4)c(=O)oc3c2C)OC1(C)C
IC50 (second compound 0.0316 µM): > 1000 nM
IC50 (second compound 0.1 µM): > 1000 nM
IC50 (second compound 0.316 µM): > 1000 nM
IC50 (second compound 1 µM): > 1000 nM
IC50 (second compound 3.16 µM): > 1000 nM
IC50 (second compound 10 µM): > 1000 nM
viability, T/C [1]: 98.2%
viability, T/C [2]: 91.8%
viability, T/C [3]: 110%
viability, T/C [4]: 95.3%
viability, T/C (second compound 0.0316 µM, first compound 0.316 µM): 95.5%
viability, T/C (second compound 0.0316 µM, first compound 1 µM): 82.2%
viability, T/C [5]: 103%
viability, T/C [6]: 103%
viability, T/C [7]: 96.3%
viability, T/C [8]: 102%
viability, T/C (second compound 0.1 µM, first compound 0.316 µM): 98.4%
viability, T/C (second compound 0.1 µM, first compound 1 µM): 80.3%
viability, T/C [9]: 105%
viability, T/C [10]: 114%
viability, T/C [11]: 103%
viability, T/C [12]: 105%
viability, T/C (second compound 0.316 µM, first compound 0.316 µM): 91.8%
viability, T/C (second compound 0.316 µM, first compound 1 µM): 70.9%
viability, T/C [13]: 99.2%
viability, T/C [14]: 98.5%
viability, T/C [15]: 101%
viability, T/C [16]: 96.3%
viability, T/C (second compound 1 µM, first compound 0.316 µM): 97.3%
viability, T/C (second compound 1 µM, first compound 1 µM): 72.4%
viability, T/C [17]: 92.3%
viability, T/C [18]: 102%
viability, T/C [19]: 106%
viability, T/C [20]: 97.4%
viability, T/C (second compound 3.16 µM, first compound 0.316 µM): 95.3%
viability, T/C (second compound 3.16 µM, first compound 1 µM): 79.1%
viability, T/C [21]: 97.9%
viability, T/C [22]: 95%
viability, T/C [23]: 106%
viability, T/C [24]: 101%
viability, T/C (second compound 10 µM, first compound 0.316 µM): 103%
viability, T/C (second compound 10 µM, first compound 1 µM): 71.7%

CC[C@@]1(O)C(=O)OCc2c1cc1n(c2=O)Cc2cc3c(CN(C)C)c(O)ccc3nc2-1 + COC1C(OC(N)=O)C(O)C(Oc2ccc3c(O)c(NC(=O)c4ccc(O)c(CC=C(C)C)c4)c(=O)oc3c2C)OC1(C)C
IC50 (second compound 0.0316 µM): > 100 nM
IC50 (second compound 0.1 µM): > 100 nM
IC50 (second compound 0.316 µM): > 100 nM
IC50 (second compound 1 µM): > 100 nM
IC50 (second compound 3.16 µM): > 100 nM
IC50 (second compound 10 µM): > 100 nM
viability, T/C (second compound 0.0316 µM, first compound 0.000316 µM): 103%
viability, T/C (second compound 0.0316 µM, first compound 0.001 µM): 96.8%
viability, T/C [1]: 97.8%
viability, T/C [2]: 103%
viability, T/C [3]: 100%
viability, T/C [4]: 95.1%
viability, T/C (second compound 0.1 µM, first compound 0.000316 µM): 116%
viability, T/C (second compound 0.1 µM, first compound 0.001 µM): 104%
viability, T/C [5]: 101%
viability, T/C [6]: 102%
viability, T/C [7]: 104%
viability, T/C [8]: 99.5%
viability, T/C (second compound 0.316 µM, first compound 0.000316 µM): 102%
viability, T/C (second compound 0.316 µM, first compound 0.001 µM): 102%
viability, T/C [9]: 106%
viability, T/C [10]: 104%
viability, T/C [11]: 105%
viability, T/C [12]: 92.4%
viability, T/C (second compound 1 µM, first compound 0.000316 µM): 108%
viability, T/C (second compound 1 µM, first compound 0.001 µM): 102%
viability, T/C [13]: 99.6%
viability, T/C [14]: 98.1%
viability, T/C [15]: 106%
viability, T/C [16]: 93.1%
viability, T/C (second compound 3.16 µM, first compound 0.000316 µM): 97.2%
viability, T/C (second compound 3.16 µM, first compound 0.001 µM): 101%
viability, T/C [17]: 103%
viability, T/C [18]: 97.2%
viability, T/C [19]: 105%
viability, T/C [20]: 86%
viability, T/C (second compound 10 µM, first compound 0.000316 µM): 107%
viability, T/C (second compound 10 µM, first compound 0.001 µM): 103%
viability, T/C [21]: 105%
viability, T/C [22]: 106%
viability, T/C [23]: 105%
viability, T/C [24]: 93%
